# Source: patent publication US20120214743A1, “ITCH SUPPRESSANT” (University of Occupational and Environmental Health, Japan, priority 2009, published 2012)
# Ends that are not written are not given here. * marks the point of attachment. SO3H = O=S(=O)(O)*
# What was measured:
# ICR mice [1] = assay: Contact hypersensitivity (CHS) mouse model to DNFB, ear swelling; type: in vivo; conditions: 0.5 nmol/ear painted immediately before DNFB challenge, measured 24 hours after challenge; FIG. 5C
# Method: For induction of CHS to 2,4-dinitrofluorobenzene (DNFB; Nakalai Tesque, Kyoto, Japan), ICR mice were sensitized on two consecutive days, days 0 and 1, on the clipped abdomen with 25 μL of 0.5% of DNFB diluted in acetone/olive oil (3:1). Five days later, animals were challenged on both sides of each ear by painting a nonirritant concentration of 0.2% DNFB. Before challenge, CCK8S (0.5 nmol/ear) diluted in acetone/olive oil (3:1) or only acetone/olive oil (control) was painted on each ear. The ear thickness of mice was measured using dial thickness gauge before and 24 hours after challenge. Ear swelling was calculated from the difference in ear thickness between before and after challenge.
# In CHS model, mice were sensitized with DNFB (2,4-dinitrofluorobenzene), a haptene, and the contact hypersensitivity raised by DNFB at day 5 lead to ear swelling.
# ICR mice [2] = assay: SP-induced scratch behavior in ICR mice; type: in vivo, mouse
# Method: Since it is considered that external administration of CCK affects keratinocytes, at first, CCK2R agonist was administered transdermally (applying the solution prepared using acetone-olive (3:1)) to itch-related behavior model (ICR mice administered intradermally with SP (100 nmol)).
# The hair was clipped over the rostral part of the murine back one or two days prior to experiment. Before behavioral recording, each mouse (4 animals per observation) was put into an acrylic cage (18×23×11 cm) for at least 1 hr for acclamation. An intradermal injection of SP (100 nmol in normal saline per site) induces scratching of the skin around the injected site by the hind paws in mice. CCKs were topically applied in the two ways, percutaenous application and intradermal injection. For percutaneous application, the shaved back skin was stripped with Scotch tape (3M) 6 times the day before the experiment. The mice were painted on the clipped back with 20 μL CCK (0.5 nmol/site) in acetone/olive (3:1) 3-4 minutes before SP injection (100 nmol/site). […] Immediately after treatment, the animals were put back into the same cage and their behavior was videotaped using a digital video camera for 40 minutes. The frequency of scratch toward the injected site by hind paws was counted for the first 20 minutes with the video.
# NHEKs = assay: IL-8 production in NHEK (cytometric bead array); type: cell-based, human; conditions: CCK8S 10^−9, 10^−8 or 10^−7 M, Ca 0.15 mM or 0.6 mM, FIG. 5A
# Method: IL^-8 concentration in the culture supernatants was quantified with Cytometric Bead Array (CBA) Flex Set System purchased from BD using FACSCanto (BD).
# NHEKs were stimulated with various concentrations of CCK8S (CCK8S concentration of 10^−9, 10^−8, or 10^−7 M, Ca concentration of 0.15 mM or 0.6 mM).
# [3] = tested on: FSMCs (mouse fetal skin derived mast cells); assay: β-Hexosaminidase assay, compound 48/80-induced degranulation of FSMCs; type: cell-based; conditions: CCK8S at 10^−8 or 10^−7 M, 15 min at 37° C., FIG. 5B
# Method: FSMCs were washed with Tyrode's buffer (Sigma), and resuspended at 2×10^4 cells per well into a 96 well plate. FSMCs were treated with compound 48/80 with or without CCK8S for 15 min at 37° C. The plate was centrifuged for 5 min and supernatant was placed into another 96 well and cell pellet were resuspended with 0.5% Triton X-100 (Sigma) in Tyrode's buffer. Supernatant and cell lysate (50 μl) was incubated with 100 μl 4 mM p-nitrophenyl-N-acetyl-β-D-galactosaminide (Sigma), dissolved in citrate buffer, pH4.5, at 37 ° C. for 90 min. The reaction is stopped with 200 μl 0.2M Glycine (MP Biomedicals, Solon, Ohio), pH10.7. The plate was read at 405 nm using a reference filter 595 nm by Microplate Reader (Bio-Rad, Hercules, Calif.). β-hexosaminidase release was determined as the ratio between activity in the supernatant and cell lysate multiplied by 100.
# The addition of compound 48/80 induces degranulation in FSMCs.
# FSMCs = assay: Confocal imaging of intracellular Ca in FSMCs; type: cell-based, mouse
# Method: Confocal imaging of cells loaded with fluorescent dyes was undertaken using a Zeiss LSM5 pascal (Carl Zeiss, Jena, Germany). Fluo-4-AM (Invitrogen) (1 μM) was loaded at 37° C. for 20 min and washed twice and sit at least for 40 min. Mast cells, were stained for CD117 (c-kit) with Alexa Fluor 700-conjugated anti-mouse CD117 antibody. The LSM5 multi-track configuration was used for simultaneous measurement of intracellular Ca concentration (Ca) (excitation, 488 nm; emission, long-pass 505 nm filter) and the expression of CD117 (excitation, 633 nm; emission, long-pass 650 nm filter). Images were recorded at room temperature with 512×512 pixels. The application of stimulation, such SP and CCK, were applied directly in the bath as a small drop ([…]). Image data were analyzed off-line using the Zeiss LSM510 analyzing software (LSM Image Examiner).
# Thus, it is likely that CCK8S affects signaling in mast cells.
substance,measurement,setting,value
"Asp-Tyr(SO3H)-Met-Gly-Trp-Met-Asp-Phe-NH2 (DY(SO3H)MGWMDF-NH2) [CCK8S, natural type cholecystokinin, tyrosine at seventh position from C-terminal sulfated]",ear swelling,ICR mice [1],suppressed
same,"scratch behavior (frequency of scratch, first 20 minutes)","ICR mice [2]; subcutaneous administration, 0.5 nmol/site in saline simultaneously with SP 100 nmol, FIG. 3B",depressed
same,"scratch behavior (frequency of scratch, first 20 minutes)","ICR mice [2]; transdermal, 0.5 nmol/site in acetone/olive (3:1), tape-stripped skin, 3-4 minutes before SP 100 nmol/site intradermal, FIG. 3",significant reduction
same,production of IL-8,NHEKs,decreased in accordance with the concentration
same,degranulation (β-hexosaminidase release) induced by compound 48/80,[3],suppression of degranulation was observed
same,percentage of responding FSMCs,"FSMCs; Ca response after CCK8S, FIG. 6 bottom",45%
same,change of intracellular Ca concentration,"FSMCs; FSMCs, Fluo-4-AM, FIG. 6 top",transient increase
same,time to transient increase in Ca after the administration,"FSMCs; FSMCs, FIG. 6 top",≤ 1 min
